# From patent EP0121856A2, “Use of pyrazolone derivatives against the growth of tumour cells and their metastases, medicaments therefor and their preparation” (BAYER AG, priority 1983, dated 1984)
# Key:
# [1] = antithrombotic effect (thrombosis prophylaxis) compared with Nafazatrom; type: in vivo; conditions: for antithrombotischer Effekt: at 100-fold dose increase compared with Nafazatrom
# [2] = tested on: B-16a Tumorzellen; assay: partial metastasis model: tail vein injection of B-16a tumour cells, oral treatment 3 days before and 2 days after tumour injection (Beispiel 2 and 3); type: in vivo, C57BL/6J-Mäuse; conditions: for Metastasenpunkte: score 1-10, mean ± S, n = 10; for Metastasenindex: treated / control points
# Protocol: (§1) Syngeneische C57BL/6J-Mäuse wurden während eines Zeitraumes von drei Tagen mit 0,005 mg/kg bis 5 mg/kg der beiden Substanzen in 0,2 ml 0,5 % Tylose peroral behandelt. Kontrolltiere erhielten täglich 0,2 ml 0,5 % Tylose. Am vierten Tag wurde den vorbehandelten Mäusen und Kontrollmäusen ein Suspension von 5 x 10^4 B-16a Tumorzellen über die Schwanzvene injiziert. Die Kontrollmäuse und die behandelten Mäuse wurden unter identischen Bedingungen der Temperatur, Lichteinwirkungsdauer, Ernährung etc. gehalten. Die Mäuse wurden 24 Tage nach erfolgter Schwanzvenen-Injektion getötet, und ihre Lungengewebe wurden untersucht. Der Grad der Metastasierung wurde nach Zahl und Größe der makroskopisch sichtbaren Metastasen mit Punktzahlen von 1 - 10 bewertet, welche die Relation zwischen Metastasenbedeckter und - freier Organfläche ausdrücken. Dabei werden die Punktzahlen nach folgenden Rahmenkriterien vergeben: 1 = 1 - 2 gerade erkennbare Metastasen, 5 = etwa 50 % der Organoberfläche ist von Metastasen bedeckt, 10 = fast keine normale Organoberfläche sichtbar.
# 5 mg des jeweiligen Pyrazolonderivats wurden in 0,5 % Ty-lose aufgenommen und dann durch Behandlung mit Ultraschall (30 sec) gelöst. Die endgültige Konzentration der Substanzen wurde durch Verdünnung der Lösungen mit 0,5 % Tylose eingestellt.
# (§2) Syngeneische C57BL/6J-Mäuse wurden während eines Zeitraumes von drei Tagen vor der Tumorinjektion und 2 Tagen nach der Tumorinjektion täglich mit 0,005 mg/kg bis 5 mg/kg der beiden Substanzen in 0,2 ml 0,5 % Tylose peroral behandelt. Kontrolltiere erhielten 0,2 ml 0,5 % Tylose. Am vierten Tag wurde den. vorbehandelten Mäusen und Kontrollmäusen eine Suspension von 5 x 10^4 B-16a Tumorzellen über die Schwanzvene injiziert.
# 20 mg des jeweiligen Pyrazolonderivats wurden in 0,5 % Tylose aufgenommen und dann durch Behandlung mit Ultraschall (30 sec) gelöst. Die endgültige Konzentration der Substanzen wurde durch Verdünnung der Lösungen mit 0,5 % Tylose eingestellt.
# as §2, with “Syngeneische Tiere” for “Syngeneische C57BL/6J-Mäuse”, “mit 2 mg” for “mit 0,005 mg/kg”, “bis 200” for “bis 5”, “der” for “der beiden”, “wurde den” for “wurde den.”, “und Kontrolltieren” for “und Kontrollmäusen”
# [3] = tested on: B-16a Tumorzellen; assay: partial metastasis model: tail vein injection of B-16a tumour cells, oral pretreatment for three days (Beispiel 1); type: in vivo, C57BL/6J-Mäuse; conditions: 3 days before tail vein injection; for Metastasenpunkte: lungs 24 days after injection, score 1-10, mean ± S, n = 10; for Metastasenindex: treated group points / control group points
# Protocol: Es wurden dieselben Tumor-Zellinien wie in EP-A 0 062 319 verwendet und auf die gleiche Weise in vivo gehalten. ;
# Tumorzellen wurden dann aseptisch aus den Wirtsmäusen entnommen und unter Anwendung sequenzieller Collagenase-Verdauung dispergiert, wie unten beschrieben. Die entnommenen Tumoren wurden in Würfel (4 x 4 mm) zerteilt, und das gewürfelte Gewebe wurde auf 6 bis 8 sterile Polycarbonat-Erlenmeyerkolben aufgeteilt (etwa 500 mg/Kolben). Ein Anteil von 10 ml einer "Tumordispersionslösung" (TDS) wurde in jeden Kolben hinzugefügt.
# Das gewürfelte Gewebe in der TDS wurde dann unter Luft in einem Dubnoff-Stoffwechsel-Schüttler (90 Schwingungen/min) dispergiert (30 min; 37°C). Die überstände wurden durch ein Seihtuch in sterile 50 ml-Rundboden-Zentrifugenröhrchen auf Polycarbonat gesammelt und 10 min (25°C) mit 900 U/min(100 g) in einem Sorvall SS-34 -Rotor zentrifugiert. Nach dem Zentrifugieren wurde die überstehende Fraktion verworfen. Das erhaltene zelluläre Material (Pellets) wurde zweimal mit MEM-Lösung gewaschen, wieder in MEM suspendiert und bei 4°C gehalten.
# Zu dem verbleibenden gewürfelten Gewebe wurde ein Anteil von 10 ml TDS hinzugefügt, und das Gewebe wurde in einem Stoffwechselschüttler inkubiert, wie oben beschrieben, außer daß die Zeitdauer 60 min betrug. Das Zentrifugieren wurde wiederholt, und die wieder suspendierten Zellen wurden vereinigt.
# (§3) Wie bereits weiter oben festgestellt wurde, ist die Metastase eine einzelne Erscheinung, die durch eine Reihe komplizierter Vorgänge verursacht wird. Gegenwärtig finden zwei "Modell"-Systeme für die Untersuchung der in vivo-Metastase verbreitete Anwendung. Das erste Modellsystem umfaßt die subkutante Injektion der Tumorzellen in das Tier. Die subkutante Injektion der Tumorzellen und anschließende Entwicklung eines Primärtumors, gefolgt von spontaner Metastase, wird als "volle" Metastase betrachtet. Ein anderes Modellsystem umfaßt die Injektion der Tumorzellen durch die Schwanzvene. In Anbetracht der Komplexität der Metastase gilt die Schwanzvenen-Injektion nur als partielles Modellsystem, da es nur die Vorgänge während des letzten Teils der Metastase wiedergibt. Das Schwanzvenen-Modellsystem gilt jedoch andererseits als außerordentlich günstig im Hinblick auf eine Standardisierung der Versuchsbedindungen Lvgl. "Methods in Cancer Research", Kapitel VII, Academic Press, Inc., 19787.
# 5 mg des jeweiligen Pyrazolonderivats wurden in 0,5 % Tylose aufgenommen und dann durch Behandlung mit Ultraschall (30 sec) gelöst. Die endgültige Konzentration der Substanzen wurde durch Verdünnung der Lösungen mit 0,5 % Tylose eingestellt.
# as §1
# [4] = tested on: B-16a-Zellen; assay: full metastasis model: subcutaneous injection of B-16a cells, oral treatment for 27 days, metastatic lung nodules (Beispiel 4); type: in vivo, C57BL/6J-Mäuse; conditions: for Metastasenpunkte: lungs at 28 days; for Metastasenindex: treated / control points
# Source text: as §3
# Die Wirkung der Verabreichung der Pyrazolon-Verbindungen über einen längeren Zeitraum hinweg auf die Zahl der'metastatischen Lungen-Kolonien des B-16a Melanoms wurde wie nachstehend für Verbindung A beschrieben bestimmt.
# 10 mg Verbindung A wurden in 0,5 % Tylose aufgenommen und dann durch Behandlung mit Ultraschall (30 sec) gelöst. Die endgültige Konzentration der Substanz wurde durch Verdünnung der Lösung mit 0,5 % Tylose eingestellt. Die Substanz wurde jeden Tag neu gelöst.
# Syngeneische C57BL/6J-Mäusen wurde eine Suspension von 1,0 x 10^5 B-16a-Zellen subkutan injiziert, die wie vorstehend beschrieben hergestellt wurde. Vom Tage nach der Tumorzell-Injektion ab erhielten die Mäuse 27 Tage peroral eine tägliche Einzeldosis von 0 bis 100 mg/kg der Pyrazolon-Verbindung. Die Kontroll-Mäuse und die behandelten Mäuse wurden unter identischen Bedingungen der Temperatur, Lichteinwirkungsdauer, Ernährung etc. gehalten. Die Mäuse wurden nach 28 Tagen getötet und die Zahl und Größe der metastatischen Knötchen in der Lunge bestimmt.
# [5] = 0,5 mg/kg peroral daily for 27 days after s.c. tumour cell injection
# [6] = 5 mg/kg peroral daily for 27 days after s.c. tumour cell injection
# [7] = 25 mg/kg peroral daily for 27 days after s.c. tumour cell injection
# [8] = 50 mg/kg peroral daily for 27 days after s.c. tumour cell injection
# [9] = 75 mg/kg peroral daily for 27 days after s.c. tumour cell injection
# [10] = 100 mg/kg peroral daily for 27 days after s.c. tumour cell injection
smiles,measurement,setting,value
CCC1=NN(CCOc2ccc3ccccc3c2)C(=O)C1 [Ethyl in der 3-Position des Nafazatroms],Wirkung bei der Thromboseprophylaxe,[1]; fraction of the effect of Nafazatrom,1/30
CCCCCCCCCCCCCCCCCC1=NN(c2ccc(Oc3ccccc3)c(S(=O)(=O)O)c2)C(=O)C1 [Verbindung F],Metastasenpunkte,[2]; 2 mg/kg peroral daily,"2,8±1,0"
same,Metastasenindex,[2]; 2 mg/kg peroral daily,"0,68"
same,Metastasenpunkte,[2]; 20 mg/kg peroral daily,"3,0±1,1"
same,Metastasenindex,[2]; 20 mg/kg peroral daily,"0,73"
same,Metastasenpunkte,[2]; 200mg/kg peroral daily,"2,6±1,0"
same,Metastasenindex,[2]; 200mg/kg peroral daily,"0,63"
CC(C)C1=NN(CCOc2ccc3ccccc3c2)C(=O)C1 [3-Isopropyl-],antithrombotischer Effekt,[1],kein antithrombotischer Effekt feststellbar
CC1=NN(CCOc2ccc3ccccc3c2)C(=O)C1C (stereo not shown) [Verbindung A],Metastasenpunkte,"[3]; 0,05 mg/kg peroral","5,3±1,5"
same,Metastasenpunkte,"[3]; 0,5 mg/kg peroral","4,1±1,4"
same,Metastasenindex,"[3]; 0,05 mg/kg peroral","0,76"
same,Metastasenindex,"[3]; 0,5 mg/kg peroral","0,59"
same,Metastasenpunkte,"[3]; 0,005 mg/kg peroral","2,6±1,1"
same,Metastasenpunkte,[3]; 5 mg/kg peroral,"2,3±1,2"
same,Metastasenindex,"[3]; 0,005 mg/kg peroral","0,37"
same,Metastasenindex,[3]; 5 mg/kg peroral,"0,33"
same,Metastasenpunkte,[4]; [5],"2,9±2,6"
same,Metastasenindex,[4]; [5],"0,66"
same,Metastasenpunkte,[4]; [6],"2,7±2,0"
same,Metastasenindex,[4]; [6],"0,61"
same,Metastasenpunkte,[4]; [7],"2,2±1,6"
same,Metastasenindex,[4]; [7],"0,50"
same,Metastasenpunkte,[4]; [8],"2,1±1,5"
same,Metastasenindex,[4]; [8],"0,48"
same,Metastasenpunkte,[4]; [9],"1,3±1,4"
same,Metastasenindex,[4]; [9],"0,30"
same,Metastasenpunkte,[4]; [10],"2,8±1,7"
same,Metastasenindex,[4]; [10],"0,64"
"CC1=NN(CCOc2ccc3ccccc3c2)C(=O)C1C (stereo not shown) [3,4-Dimethyl-Derivat]",antithrombotischer Effekt,[1],kein antithrombotischer Effekt feststellbar
COc1cc(N2N=C(N)CC2=O)ccc1C [Verbindung E],Metastasenpunkte,[2]; 2 mg/kg peroral daily,"2,7±1,7"
same,Metastasenindex,[2]; 2 mg/kg peroral daily,"0,66"
same,Metastasenpunkte,[2]; 20 mg/kg peroral daily,"2,5±1,0"
same,Metastasenindex,[2]; 20 mg/kg peroral daily,"0,61"
same,Metastasenpunkte,[2]; 200mg/kg peroral daily,"2,7±1,5"
same,Metastasenindex,[2]; 200mg/kg peroral daily,"0,66"
CCCC1=NN(CCOc2ccc3ccccc3c2)C(=O)C1 [3-n-Propyl-],antithrombotischer Effekt,[1],kein antithrombotischer Effekt feststellbar
O=C1CC(Cc2ccccc2)=NN1CCOc1ccc2ccccc2c1 [3-Benzyl-],antithrombotischer Effekt,[1],kein antithrombotischer Effekt feststellbar
CC1=NN(CCOc2ccc3ccccc3c2)C(=O)C1(C)C [Verbindung B],Metastasenpunkte,"[3]; 0,05 mg/kg peroral","4,2±2,6"
same,Metastasenpunkte,"[3]; 0,5 mg/kg peroral","2,6±0,8"
same,Metastasenindex,"[3]; 0,05 mg/kg peroral","0,60"
same,Metastasenindex,"[3]; 0,5 mg/kg peroral","0,37"
same,Metastasenpunkte,"[3]; 0,005 mg/kg peroral","4,9±2,2"
same,Metastasenpunkte,[3]; 5 mg/kg peroral,"4,5±2,3"
same,Metastasenindex,"[3]; 0,005 mg/kg peroral",0.70
same,Metastasenindex,[3]; 5 mg/kg peroral,"0,64"
CC1=NN(C(C)c2ccsc2)C(=O)C1 (stereo not shown) [Verbindung D],Metastasenpunkte,"[2]; 0,05 mg/kg peroral daily","3,8±1,8"
same,Metastasenpunkte,"[2]; 0,5 mg/kg peroral daily","3,6±1,7"
same,Metastasenindex,"[2]; 0,05 mg/kg peroral daily","0,63"
same,Metastasenindex,"[2]; 0,5 mg/kg peroral daily","0,60"
same,Metastasenpunkte,"[2]; 0,005 mg/kg peroral daily","4,7±1,9"
same,Metastasenpunkte,[2]; 5 mg/kg peroral daily,"3,8±1,4"
same,Metastasenindex,"[2]; 0,005 mg/kg peroral daily","0,78"
same,Metastasenindex,[2]; 5 mg/kg peroral daily,"0,63"
CC1=NN(Cc2ccoc2)C(=O)C1 [Verbindung C],Metastasenpunkte,"[2]; 0,05 mg/kg peroral daily","4,3±1,7"
same,Metastasenpunkte,"[2]; 0,5 mg/kg peroral daily","4,7±2,1"
same,Metastasenindex,"[2]; 0,05 mg/kg peroral daily","0,72"
same,Metastasenindex,"[2]; 0,5 mg/kg peroral daily","0,78"
same,Metastasenpunkte,"[2]; 0,005 mg/kg peroral daily","5,2±2,0"
same,Metastasenpunkte,[2]; 5 mg/kg peroral daily,"5,3±2,0"
same,Metastasenindex,"[2]; 0,005 mg/kg peroral daily","0,87"
same,Metastasenindex,[2]; 5 mg/kg peroral daily,"0,88"
